From PubChem BioAssay (NCI)
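Protocol summary: plate cells (96-well), add compound at 5 concentrations, incubate 48 h, interpolate endpoints linearly. TGI: total growth inhibition.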

Tests used:
Assay in all cases: growth of human tumour cells (NCI), 48 h
[1] = system: A498 renal
[2] = system: HOP-62 NSCLC
[3] = system: MOLT-4 leukemia
[4] = system: CAKI-1 renal
[5] = system: NCI/ADR-RES ovarian
[6] = system: SW-620 colon
[7] = system: UO-31 renal
[8] = system: HS 578T breast
[9] = system: PC-3 prostate
[10] = system: U251 CNS
[11] = system: EKVX NSCLC
[12] = system: RXF 393 renal
[13] = system: M14 melanoma
[14] = system: SF-268 CNS
[15] = system: MALME-3M melanoma
[16] = system: SK-OV-3 ovarian
[17] = system: T-47D breast
[18] = system: OVCAR-8 ovarian
[19] = system: OVCAR-5 ovarian
[20] = system: HOP-92 NSCLC

SMILES	TGI [1] [µM]	TGI [2] [µM]	TGI [3] [µM]	TGI [4] [µM]	TGI [5] [µM]	TGI [6] [µM]	TGI [7] [µM]	TGI [8] [µM]	TGI [9] [µM]	TGI [10] [µM]	TGI [11] [µM]	TGI [12] [µM]	TGI [13] [µM]	TGI [14] [µM]	TGI [15] [µM]	TGI [16] [µM]	TGI [17] [µM]	TGI [18] [µM]	TGI [19] [µM]	TGI [20] [µM]
CC12CCC(CC1=O)C2(C)CCC(N)=O (stereo not drawn)	> 100	> 100	> 100	> 100	> 100	> 100	> 100	> 100	> 100	> 100	> 100	> 100	> 100	> 100	> 100	> 100	> 100	> 100	> 100	–
NC(=O)N=C(N(Cc1ccccc1)Cc1ccccc1)N(Cc1ccccc1)Cc1ccccc1	> 100	> 65.8	> 100	> 100	> 100	> 100	> 100	> 100	> 100	> 63.7	> 100	> 100	–	> 100	> 100	> 100	> 100	> 100	> 100	> 64.8
C=CCOc1ccc(/C(N=Nc2ccc([N+](=O)[O-])cc2)=N/NC(=O)c2ccccc2)cc1OC	> 100	> 100	> 100	> 100	> 100	> 100	> 100	> 100	> 100	> 100	> 100	> 100	> 100	> 100	> 100	–	> 100	> 100	> 100	> 100
CCOC(=O)C1(C(=O)OCC)Nc2cccnc2N(C)N1	52.4	> 100	55.3	36.1	43.8	69	31.8	> 100	67.5	41.4	–	33.3	39.1	> 100	> 100	> 100	53.5	40	–	29.7
CC1CNc2ccccc2N=C1NN (stereo not drawn)	> 100	> 100	–	> 100	> 100	> 100	> 100	> 100	> 100	> 100	> 100	> 100	> 100	> 100	> 100	> 100	> 100	> 100	> 100	–
CC(=O)OCC1OC(SC2=N/C(=C\c3cc4c(=O)c5ccccc5sc4s3)C(=O)N2c2ccccc2)C(OC(C)=O)C(OC(C)=O)C1OC(C)=O (stereo not drawn)	> 100	> 100	54.4	> 100	> 100	> 100	> 100	> 100	> 100	62.8	> 100	> 100	–	> 100	> 100	–	> 100	> 100	> 100	–
O=Nc1c(O)cc(Nc2ccc(Br)cc2)c2ccccc12	22.2	19.1	42	23.7	33.1	35	23	> 28.4	> 100	40.8	> 100	50.3	3.03	> 55.6	–	30.8	> 73.8	37.2	29.8	45.2
CC(=O)N1C(=O)/C(=C\C(=O)c2ccc([N+](=O)[O-])cc2)c2ccccc21	> 100	> 100	51.6	41.2	> 100	–	63	54.2	58.4	46.4	51.6	> 100	> 100	49.2	45.9	> 100	61.9	> 100	> 100	–
COc1ccc2oc(=N)c(C(=O)NCc3ccccc3)cc2c1	35.1	55.8	> 100	> 100	36.8	55.6	> 100	42.7	> 100	37.2	> 100	42.4	> 100	52.5	39.3	56.7	44.6	40.4	> 100	–
CCOC(=O)N(Cc1cccs1)c1cc(OC)c(OC)c(OC)c1	> 100	> 100	36	> 100	29.2	> 100	> 100	> 100	98.9	> 100	> 100	> 100	> 100	> 100	> 100	–	> 100	> 100	> 100	–
CCN(CC)CCC(=O)c1ccc(Oc2ccc(Cl)cc2)cc1	31.7	24.1	42.2	37.9	56.7	44.4	32.4	59	28.3	33.1	42.2	43.2	28.3	34.5	34.8	–	44.3	44.9	29.9	32.8
